Test [1] has as its system LNCaP. Put plainly: Antiproliferative activity against androgen-positive human LNCaP cells assessed as cell growth inhibition measured after 72 hrs by SRB assay. The test is classed as functional, cell-based. On the technique in general: Sulforhodamine B stains cellular protein and so reports cell mass.
The target of test [2] is T1, Androgen receptor (Homo sapiens) (UniProt P10275).
T1 sequence (whole entry): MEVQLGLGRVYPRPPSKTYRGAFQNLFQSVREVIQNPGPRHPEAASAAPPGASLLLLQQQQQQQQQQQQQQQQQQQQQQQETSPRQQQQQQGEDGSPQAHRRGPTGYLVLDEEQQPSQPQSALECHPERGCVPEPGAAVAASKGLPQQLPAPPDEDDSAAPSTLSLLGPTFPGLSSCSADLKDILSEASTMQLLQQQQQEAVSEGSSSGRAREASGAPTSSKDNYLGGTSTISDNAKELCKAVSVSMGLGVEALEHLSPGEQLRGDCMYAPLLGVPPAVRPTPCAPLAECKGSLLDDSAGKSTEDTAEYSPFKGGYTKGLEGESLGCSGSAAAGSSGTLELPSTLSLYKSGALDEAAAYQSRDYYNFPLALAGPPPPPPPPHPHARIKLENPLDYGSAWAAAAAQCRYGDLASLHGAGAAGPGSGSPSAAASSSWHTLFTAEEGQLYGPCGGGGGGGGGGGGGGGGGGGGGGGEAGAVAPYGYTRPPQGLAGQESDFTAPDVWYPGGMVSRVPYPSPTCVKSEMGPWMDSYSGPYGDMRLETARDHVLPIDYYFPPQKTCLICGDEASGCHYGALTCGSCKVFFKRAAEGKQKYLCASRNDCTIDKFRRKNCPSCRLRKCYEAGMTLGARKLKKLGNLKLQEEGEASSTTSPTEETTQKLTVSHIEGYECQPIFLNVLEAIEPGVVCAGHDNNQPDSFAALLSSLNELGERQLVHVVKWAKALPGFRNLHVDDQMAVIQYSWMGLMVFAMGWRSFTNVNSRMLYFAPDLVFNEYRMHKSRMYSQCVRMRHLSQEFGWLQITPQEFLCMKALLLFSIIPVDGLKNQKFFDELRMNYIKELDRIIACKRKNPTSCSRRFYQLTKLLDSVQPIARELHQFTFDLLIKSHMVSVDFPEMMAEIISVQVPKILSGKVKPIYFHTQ
As to the kind of experiment: Binding affinity to androgen receptor LBD (unknown origin) at 10 uM incubated for 4 hrs under dark by fluorescence polarization based binding assay relative to R1881.

In test [3] the test system is LNCaP C4-2B. Put plainly: Antiproliferative activity against androgen-sensitive positive human LNCaP C4-2B cells assessed as cell growth inhibition measured after 72 hrs by SRB assay. The test is classed as functional, cell-based.
The test system of test [4] is PC-3. Put plainly: Antiproliferative activity against androgen-negative human PC-3 cells assessed as cell growth inhibition measured after 72 hrs by SRB assay. The test is classed as functional, cell-based. The conditions noted are these: PC-3, 72 h.
A short description of test [5]: Cytotoxicity against androgen-negative human WPMY-1 cells assessed as cell growth inhibition measured after 72 hrs by SRB assay. The note with it: WPMY-1, 72 h. The format is cell-based.

As usually defined, the IC50 is the midpoint of a concentration-inhibition curve. As to `CC1(C)C(=O)N(c2ccc(C#N)c(C(F)(F)F)c2)C(=S)N1Cc1ccc(-n2cc(COCCOCCOCCOCCOC(=O)CC34CC5CC(CC(C5)C3)C4)nn2)cc1`, the IC50 in test [1], in test [3], in test [4] and in test [5] was over 80 µM in each case. Also, in test [2], the Activity was 39.9%.
With `CC1(C)C(=O)N(c2ccc(C#N)c(C(F)(F)F)c2)C(=S)N1Cc1ccc(-n2cc(COCCOCCOC(=O)CC34CC5CC(CC(C5)C3)C4)nn2)cc1`, the half-inhibitory concentration (IC50) in test [1], in test [3], in test [4] and in test [5] was over 80 µM each time. This molecule yielded an Activity in test [2] of 35.8%.
On to `CC1(C)C(=O)N(c2ccc(C#N)c(C(F)(F)F)c2)C(=O)N1Cc1ccc(OCCOCCOC(=O)CC23CC4CC(CC(C4)C2)C3)cc1`, for which the IC50 in test [1], in test [3], in test [4] and in test [5] was over 80 µM in each case. This molecule also had an Activity in test [2] of 26.3%.
Regarding `CC1(C)C(=O)N(c2ccc(C#N)c(C(F)(F)F)c2)C(=O)N1CCCn1cc(COCCOCCOC(=O)CC23CC4CC(CC(C4)C2)C3)nn1`, the IC50 in test [1] is 7.28 µM; in test [3], 12.3 µM; in test [4], over 80 µM; in test [5], over 80 µM. This molecule came in with an Activity in test [2] of 41.9%.
With `CC1(C)C(=O)N(c2ccc(C#N)c(C(F)(F)F)c2)C(=S)N1Cc1cn(CCOCCOCCOCCOC(=O)CC23CC4CC(CC(C4)C2)C3)nn1`, the 50% inhibitory concentration (IC50) is 6.31 µM in test [1], 11.2 µM in test [3], over 80 µM in test [4] and over 80 µM in test [5]. This molecule also showed an Activity in test [2] of 69.1%.
Turning to `CC1(C)C(=O)N(c2ccc(C#N)c(C(F)(F)F)c2)C(=S)N1CCCCCCn1cc(COCCOCCOC(=O)CC23CC4CC(CC(C4)C2)C3)nn1`, the IC50 in test [1] was 33.9 µM; in test [3], over 80 µM; in test [4], over 80 µM; in test [5] it was over 80 µM. In test [2], this molecule yielded an Activity of 32.3%.
Consider `CC1(C)C(=O)N(c2ccc(C#N)c(C(F)(F)F)c2)C(=O)N1CCCn1cc(COCCOCCOCCOCCOC(=O)CC23CC4CC(CC(C4)C2)C3)nn1`, for which the IC50 in test [1] is 9.96 µM; in test [3] it was 11.7 µM; in test [4], over 80 µM; in test [5] it was over 80 µM. For the same molecule, the Activity in test [2] is 47%.
Consider `CC1(C)C(=O)N(c2ccc(C#N)c(C(F)(F)F)c2)C(=S)N1Cc1ccc(-n2cc(COCCOCCOCCOC(=O)CC34CC5CC(CC(C5)C3)C4)nn2)cc1`, for which the 50% inhibitory concentration (IC50) in test [1], in test [3], in test [4] and in test [5] was over 80 µM each time. Also, the Activity in test [2] was determined as 25.3%.
Regarding `CC1(C)C(=O)N(c2ccc(C#N)c(C(F)(F)F)c2)C(=S)N1CCCn1cc(COCCOCCOCCOCCOC(=O)CC23CC4CC(CC(C4)C2)C3)nn1`, the IC50 in test [1] is 4.25 µM; in test [3] it was 7.64 µM; in test [4] it was over 80 µM; in test [5], over 80 µM. In test [2], this molecule gave an Activity of 69.3%.
For the molecule `CC1(C)C(=O)N(c2ccc(C#N)c(C(F)(F)F)c2)C(=O)N1CCCn1cc(COCCCOC(=O)CC23CC4CC(CC(C4)C2)C3)nn1`, the half-inhibitory concentration (IC50) in test [1] was 4.06 µM; in test [3] it was 11.2 µM; in test [4], over 80 µM; in test [5], over 80 µM. Moreover, the Activity in test [2] was 24.3%.
With `CC1(C)C(=O)N(c2ccc(C#N)c(C(F)(F)F)c2)C(=S)N1Cc1cn(CCOCCOCCOC(=O)CC23CC4CC(CC(C4)C2)C3)nn1`, the IC50 is 9.13 µM in test [1], over 80 µM in test [3], over 80 µM in test [4] and over 80 µM in test [5]. The molecule also gave an Activity in test [2] of 35.1%.
Take `CC1(C)C(=O)N(c2ccc(C#N)c(C(F)(F)F)c2)C(=S)N1Cc1ccc(OCCCOC(=O)CC23CC4CC(CC(C4)C2)C3)cc1`: the IC50 in test [1], in test [3], in test [4] and in test [5] was over 80 µM each time. This molecule had an Activity in test [2] of 37.9%.
Regarding `CC1(C)C(=O)N(c2ccc(C#N)c(C(F)(F)F)c2)C(=O)N1Cc1cn(CCCOC(=O)CC23CC4CC(CC(C4)C2)C3)nn1`, the 50% inhibitory concentration (IC50) in test [1], in test [3], in test [4] and in test [5] was over 80 µM throughout. In test [2], this molecule registered an Activity of 43.4%.
As to `CC1(C)C(=O)N(c2ccc(C#N)c(C(F)(F)F)c2)C(=S)N1CCCn1cc(COCCOCCOCCOCCOCCOC(=O)CC23CC4CC(CC(C4)C2)C3)nn1`, the IC50 in test [1] is 6.92 µM; in test [3], 6.61 µM; in test [4] it was over 80 µM; in test [5], over 80 µM. The Activity in test [2] is 33.7%.
On to `CC1(C)C(=O)N(c2ccc(C#N)c(C(F)(F)F)c2)C(=S)N1Cc1cn(CCCOC(=O)CC23CC4CC(CC(C4)C2)C3)nn1`, for which the concentration for half-maximal inhibition (IC50) in test [1], in test [3], in test [4] and in test [5] was over 80 µM in each case. Besides, the Activity in test [2] was 52.8%.
For `CC1(C)C(=O)N(c2ccc(C#N)c(C(F)(F)F)c2)C(=S)N1Cc1cn(CCOCCOC(=O)CC23CC4CC(CC(C4)C2)C3)nn1`, the IC50 in test [1] is over 80 µM; in test [3] it was 17.4 µM; in test [4], over 80 µM; in test [5] it was over 80 µM. In test [2], this molecule came in with an Activity of 22.2%.
For `CC1(C)C(=O)N(c2ccc(C#N)c(C(F)(F)F)c2)C(=O)N1Cc1ccc(-n2cc(COCCOCCOCCOCCOC(=O)CC34CC5CC(CC(C5)C3)C4)nn2)cc1`, the IC50 in test [1], in test [3], in test [4] and in test [5] was over 80 µM in each case. In test [2], this molecule registered an Activity of 51.8%.
Regarding `CC1(C)C(=O)N(c2ccc(C#N)c(C(F)(F)F)c2)C(=S)N1Cc1ccc(OCCOCCOCCOCCOC(=O)CC23CC4CC(CC(C4)C2)C3)cc1`, the IC50 in test [1], in test [3], in test [4] and in test [5] was over 80 µM throughout. Further, in test [2], the Activity is 35.8%.
In the case of `CC1(C)C(=O)N(c2ccc(C#N)c(C(F)(F)F)c2)C(=O)N1Cc1ccc(-n2cc(COCCOCCOC(=O)CC34CC5CC(CC(C5)C3)C4)nn2)cc1`, the IC50 in test [1], in test [3], in test [4] and in test [5] was over 80 µM throughout. In addition, the Activity in test [2] worked out at 36.7%.
Consider `CC1(C)C(=O)N(c2ccc(C#N)c(C(F)(F)F)c2)C(=O)N1Cc1ccc(-n2cc(COCCOCCOCCOC(=O)CC34CC5CC(CC(C5)C3)C4)nn2)cc1`, for which the IC50 in test [1], in test [3], in test [4] and in test [5] was over 80 µM throughout. In test [2], the Activity stood at 20.1%.
On to `CC1(C)C(=O)N(c2ccc(C#N)c(C(F)(F)F)c2)C(=S)N1Cc1ccc(-n2cc(COCCCOC(=O)CC34CC5CC(CC(C5)C3)C4)nn2)cc1`, for which the IC50 in test [1], in test [3], in test [4] and in test [5] was over 80 µM each time. Further, in test [2], the Activity stood at 26%.
Regarding `CC1(C)C(=O)N(c2ccc(C#N)c(C(F)(F)F)c2)C(=S)N1Cc1ccc(OCCOCCOC(=O)CC23CC4CC(CC(C4)C2)C3)cc1`, the IC50 in test [1], in test [3], in test [4] and in test [5] was over 80 µM in each case. In test [2], this molecule registered an Activity of 34.2%.
On to `CC1(C)C(=O)N(c2ccc(C#N)c(C(F)(F)F)c2)C(=O)N1Cc1cn(CCOCCOCCOCCOC(=O)CC23CC4CC(CC(C4)C2)C3)nn1`, for which the 50% inhibitory concentration (IC50) in test [1] is 6.87 µM; in test [3] it was 7.76 µM; in test [4] it was over 80 µM; in test [5], over 80 µM. Also, the Activity in test [2] is 29.8%.
On to `CC1(C)C(=O)N(c2ccc(C#N)c(C(F)(F)F)c2)C(=O)N1Cc1cn(CCOCCOC(=O)CC23CC4CC(CC(C4)C2)C3)nn1`, for which the IC50 is over 80 µM in test [1], 11.9 µM in test [3], over 80 µM in test [4] and over 80 µM in test [5]. The molecule further registered an Activity in test [2] of 52.8%.
For `CC1(C)C(=O)N(c2ccc(C#N)c(C(F)(F)F)c2)C(=O)N1Cc1ccc(-n2cc(COCCCOC(=O)CC34CC5CC(CC(C5)C3)C4)nn2)cc1`, the half-inhibitory concentration (IC50) in test [1], in test [3], in test [4] and in test [5] was over 80 µM in each case. The molecule also showed an Activity in test [2] of 19.1%.

These data come from ChEMBL document CHEMBL4706528, “The design, synthesis and anti-tumor mechanism study of new androgen receptor degrader” (Eur J Med Chem, 2020).
